# Laboratory results as given in article PMC6277767, “Broad and Region-Specific Impacts of the Synthetic Cannabinoid CP 55,940 in Adolescent and Adult Female Mouse Brains” (Frontiers in Molecular Neuroscience, 2018).
# Test: CP 55,940 levels in eight brain regions 2 h after single i.p. 3 mg/kg injection (HPLC/MS/MS)
# Assay type: in vivo, mouse
# Details: for CP 55,940 Direction (relative to Veh) / CP 55,940 Magnitude (x Veh level): p .000
# Procedure: The Bloomington Institutional Animal Care and Use Committee of Indiana University reviewed and approved the animal procedures. Female mice from the CD1 strain were utilized to match our study examining THC’s effects on the brain lipidome ([Leishman et al., 2018]). Mice were given a single i.p. injection of either 3 mg/kg CP or 1:1:18 cremophor:ethanol:saline vehicle (please refer to the section “3 mg/kg CP Is Relevant for Synthetic Cannabinoid Abuse and Has Stronger Effects on the Female Mouse Brain Lipidome During Adolescence” for a justification of dose and use of female mice). Three different age groups were given injections: PND 35 and PND 50 adolescents, and adult mice (PND 113). At least eight mice in each age group received CP and at least eight received vehicle. Matching the THC study time course ([Leishman et al., 2018]), mice were sacrificed via rapid decapitation 2 h after injection. Brains were immediately removed and flash-frozen in liquid nitrogen, and then stored at -80°C until dissections were performed. Brains were dissected on an ice-cold dissection plate into the following regions: STR, HIPP, CER, THAL, CTX, HYP, MID, and STEM. These abbreviations for these brain areas will be used exclusively when discussing the results generated by these specific dissections. Each dissected area was immediately placed in liquid nitrogen and then stored at -80°C until used for lipid extraction.
# Tissue extracts were performed as previously described ([Bradshaw et al., 2006]; [Stuart et al., 2013]; [Raboune et al., 2014]; [Leishman et al., 2016a],[b], [2017], [2018]). First, samples were shock frozen in liquid nitrogen, weighed, and transferred to a centrifuge tube. The mass of the largest sample was multiplied by 50 to determine how many milliliters of HPLC-grade methanol (Fisher, Fair Lawn, NJ, United States) to add. Then, samples were spiked with 500 pmol deuterium-labeled NAGly (d8NAGly; Cayman Chemical, Ann Arbor, MI, United States). Samples were placed on ice in darkness for 2 h then individually homogenized and centrifuged at 19,000 × g for 20 min at 20°C. Supernatants were diluted with HPLC water (purified in house) to make a solution of 75% water, 25% supernatant. Lipids were partially purified on C18 solid phase extraction columns (Agilent, Palo Alto, CA, United States). A series of four elutions with 1.5 mL of 60%, 75%, 85%, and 100% methanol were collected ([Stuart et al., 2013]; [Leishman et al., 2016a],[b], [2018]).
# As previously described ([Bradshaw et al., 2006]; [Tan et al., 2006]; [Smoum et al., 2010]; [Stuart et al., 2013]; [Tortoriello et al., 2013]; [Raboune et al., 2014]; [Leishman et al., 2016a],[b], [2017], [2018]), samples were analyzed using an Applied Biosystems API 3000 triple quadrupole mass spectrometer with electrospray ionization (Foster City, CA, United States). Using an Agilent XDB-C18 reversed phase analytical column and optimized mobile phase gradients, 20 μL from each elution were chromatographed. Two Shimadzu 10ADvp pumps (Columbia, MD, United States) provided the pressure for gradient elution. Mobile phase A: 20% methanol, 80% water (v/v) and 1 mM ammonium acetate (Sigma, St. Louis, MO, United States). Mobile phase B: 100% methanol, 1 mM ammonium acetate. Every method run began with 0% mobile phase B, reached 100% mobile phase B flowing at 0.2 mL/min, and gradually returned to 0% mobile phase B.
# This screening library will be referred to as the lipidome when discussing data from this study. HPLC/MS/MS data were analyzed using Analyst software (Applied Biosystems) ([Bradshaw et al., 2006]; [Tan et al., 2006]; [Stuart et al., 2013]; [Tortoriello et al., 2013]; [Raboune et al., 2014]; [Leishman et al., 2016a],[b], [2017], [2018]). Chromatograms (Supplementary Figure 3) were generated by determining the retention time of analytes from the analytical column with a [M-1] or [M+1] parent peak and a fragmentation peak corresponding to the programmed values. […]
# [1] = adult brainstem, 3mg/kg CP 55,940
# [2] = adult cortex, 3 mg/kg CP 55,940
# [3] = adult hypothalamus, 3mg/kg CP 55,940
# [4] = adult midbrain, 3mg/kg CP 55,940
# [5] = brainstem, PND35, 3 mg/kg CP 55,940 vs Veh
compound,measurement,setting,value
"CCCCCCC(C)(C)c1ccc([C@@H]2C[C@H](O)CC[C@H]2CCCO)c(O)c1 [CP 55,940]",brain area with highest levels of CP,PND 35,CTX
same,"CP 55,940 level, Mean","PND 35, CER, 2 hours after acute 3 mg/kg injection",7.2155E-011
same,"CP 55,940 level, Mean","PND 35, CTX, 2 hours after acute 3 mg/kg injection",1.1107E-010
same,"CP 55,940 level, Mean","PND 35, HIPP, 2 hours after acute 3 mg/kg injection",9.6303E-011
same,"CP 55,940 level, Mean","PND 35, HYP, 2 hours after acute 3 mg/kg injection",5.3113E-011
same,"CP 55,940 level, Mean","PND 35, MID, 2 hours after acute 3 mg/kg injection",7.9142E-011
same,"CP 55,940 level, Mean","PND 35, STEM, 2 hours after acute 3 mg/kg injection",7.0414E-011
same,"CP 55,940 level, Mean","PND 35, STR, 2 hours after acute 3 mg/kg injection",5.7413E-011
same,"CP 55,940 level, Mean","PND 35, THAL, 2 hours after acute 3 mg/kg injection",8.8715E-011
same,"CP 55,940 level, Mean","PND 35, Total (all brain areas), 2 hours after acute 3 mg/kg injection",7.8540E-011
same,"CP 55,940 level, Direction (relative to Veh)",PND 35 hypothalamus,↑
same,"CP 55,940 level, Magnitude (x Veh level)",PND 35 hypothalamus,infinite
same,"CP 55,940 level: Magnitude (x Veh level)","PND 35 midbrain, 3mg/kg",infinite
same,"CP 55,940 level: Direction (rel to Veh)","PND 35 midbrain, 3mg/kg, one-way ANOVA",↑
same,"CP 55,940 mean level","PND 35 striatum, 3 mg/kg i.p., 2 h",5.74E-11 moles per gram
same,brain area with highest levels of CP,PND 50,HIPP
same,"CP 55,940 level, Mean","PND 50, CER, 2 hours after acute 3 mg/kg injection",7.5674E-011
same,"CP 55,940 level, Mean","PND 50, CTX, 2 hours after acute 3 mg/kg injection",8.6116E-011
same,"CP 55,940 level, Mean","PND 50, HIPP, 2 hours after acute 3 mg/kg injection",1.2297E-010
same,"CP 55,940 level, Mean","PND 50, HYP, 2 hours after acute 3 mg/kg injection",4.3769E-011
same,"CP 55,940 level, Mean","PND 50, MID, 2 hours after acute 3 mg/kg injection",1.2091E-010
same,"CP 55,940 level, Mean","PND 50, STEM, 2 hours after acute 3 mg/kg injection",8.3747E-011
same,"CP 55,940 level, Mean","PND 50, STR, 2 hours after acute 3 mg/kg injection",5.8704E-011
same,"CP 55,940 level, Mean","PND 50, THAL, 2 hours after acute 3 mg/kg injection",9.9312E-011
same,"CP 55,940 level, Mean","PND 50, Total (all brain areas), 2 hours after acute 3 mg/kg injection",8.6438E-011
same,brain area with highest levels of CP,adult,CER
same,"CP 55,940 level, Direction (relative to Veh)",[1],↑
same,"CP 55,940 level, Magnitude (x Veh level)",[1],infinite
same,"CP 55,940 level, Mean","adult cortex, 3mg/kg CP 55,940",1.85E-10
same,"CP 55,940 Direction (relative to Veh)",[2],↑
same,"CP 55,940 Magnitude (x Veh level)",[2],infinite
same,"CP 55,940 level, Mean","adult female mice, brainstem, 3mg/kg CP 55,940",1.52E-10
same,"CP 55,940 level, Mean","adult hypothalamus, 3 mg/kg CP 55,940",1.17E-10
same,"CP 55,940 Direction (relative to Veh)",[3],↑
same,"CP 55,940 Magnitude (x Veh level)",[3],infinite
same,"CP 55,940 level, Mean",[4],2.2E-10
same,"CP 55,940 Direction (relative to Veh)",[4],↑
same,"CP 55,940 Magnitude (x Veh level)",[4],infinite
same,"CP 55,940 level, Mean","adult, CER, 2 hours after acute 3 mg/kg injection",2.8002E-010
same,"CP 55,940 level, Mean","adult, CTX, 2 hours after acute 3 mg/kg injection",1.8513E-010
same,"CP 55,940 level, Mean","adult, HIPP, 2 hours after acute 3 mg/kg injection",2.6840E-010
same,"CP 55,940 level, Mean","adult, HYP, 2 hours after acute 3 mg/kg injection",1.1726E-010
same,"CP 55,940 level, Mean","adult, MID, 2 hours after acute 3 mg/kg injection",2.2043E-010
same,"CP 55,940 level, Mean","adult, STEM, 2 hours after acute 3 mg/kg injection",1.5203E-010
same,"CP 55,940 level, Mean","adult, STR, 2 hours after acute 3 mg/kg injection",2.0821E-010
same,"CP 55,940 level, Mean","adult, THAL, 2 hours after acute 3 mg/kg injection",2.0002E-010
same,"CP 55,940 level, Mean","adult, Total (all brain areas), 2 hours after acute 3 mg/kg injection",2.0394E-010
same,brain area with lowest levels of CP,all three age groups,HYP
same,variation of CP levels among the eight brain regions,all three age groups,twofold to threefold
same,"CP 55,940 level, Direction (relative to Veh)",[5],↑
same,"CP 55,940 level, Magnitude (x Veh level)",[5],infinite
same,"CP 55,940 level","brainstem, PND35 female mice, 3mg/kg CP 55,940, mean",7.04E-11
